This is an account of results in PubChem BioAssay (NCI).

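Five compound concentrations were applied to cells in 96-well plates for 48 hours; endpoints were derived by simple linear interpolation of the resulting dose-response curve. The concentration for 50% growth inhibition is given as GI50. TGI is the concentration that stops growth completely.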 Where only a bound is given, the exact number is not on record here.

Among the test systems are LOX IMVI melanoma; UACC-257 melanoma; BT-549 breast; NCI-H522 lung; DU-145 prostate; HCC-2998 colon; HCT-116 colon; SK-MEL-5 melanoma.
Holding throughout (experiment): growth of human tumour cells (NCI), 48 h

With `COc1cc(C2C=C(C)N=C3SC=C(C)N32)cc(OC)c1OC` (stereo unspecified), the GI50 in the experiment on LOX IMVI melanoma was 0.379 µM; with UACC-257 melanoma, 1.77 µM; with BT-549 breast it was 0.531 µM; in the experiment on NCI-H522 lung, 0.53 µM; with DU-145 prostate, 1.81 µM; in the experiment on HCC-2998 colon, 1.94 µM. Also, the GI50 is 0.171 µM in the experiment with HCT-116 colon and 1 µM in the experiment with SK-MEL-5 melanoma. Further, the TGI in the experiment on LOX IMVI melanoma was 1.73 µM; with UACC-257 melanoma it was 4.89 µM; in the experiment with BT-549 breast it was 2.09 µM; with NCI-H522 lung, 1.81 µM; with DU-145 prostate, over 100 µM; with HCC-2998 colon, 3.54 µM. Also, the values for the TGI with HCT-116 colon and with SK-MEL-5 melanoma were 0.336 µM and 2.21 µM, respectively.
With `CC[C@]1(O)CC2CN(CCc3c([nH]c4ccccc34)C(C(=O)OC)(c3cc4c(cc3OC)N(C=O)[C@H]3[C@@](O)(C(=O)OC)[C@H](OC(C)=O)[C@]5(CC)[C@@H]6C[C@@H]6CN6CC[C@]43[C@@H]65)C2)C1` (stereo partly specified), the GI50 in the experiment with LOX IMVI melanoma, with UACC-257 melanoma, in the experiment with BT-549 breast, with NCI-H522 lung, in the experiment on DU-145 prostate and in the experiment with HCC-2998 colon was under 0.00325 µM throughout. Moreover, the GI50 with HCT-116 colon and with SK-MEL-5 melanoma was under 0.00325 µM throughout. The TGI with LOX IMVI melanoma was over 26 µM; in the experiment on UACC-257 melanoma, 4.37 µM; with BT-549 breast, 0.015 µM; in the experiment on NCI-H522 lung, under 0.00325 µM; with DU-145 prostate, under 0.00325 µM; with HCC-2998 colon, 9.23 µM. The figures for the TGI in the experiment with HCT-116 colon and with SK-MEL-5 melanoma were 0.00352 µM and 0.0119 µM, respectively.
Take `O=C(NNC1=NS(=O)(=O)c2ccccc2N1c1ccccc1)c1cnccn1`: the GI50 in the experiment with LOX IMVI melanoma, in the experiment with UACC-257 melanoma, with BT-549 breast, in the experiment on NCI-H522 lung, with DU-145 prostate and in the experiment on HCC-2998 colon was over 100 µM throughout. In addition, the GI50 in the experiment on HCT-116 colon and in the experiment on SK-MEL-5 melanoma was over 100 µM in each case. Also, the TGI with LOX IMVI melanoma, with UACC-257 melanoma, with BT-549 breast, in the experiment with NCI-H522 lung, in the experiment with DU-145 prostate and with HCC-2998 colon was over 100 µM in each case. In addition, the TGI with HCT-116 colon and with SK-MEL-5 melanoma was over 100 µM each time.
With `COC(=O)NC1=Nc2ccccc2C(=O)NN1`, the TGI in the experiment with LOX IMVI melanoma, in the experiment on UACC-257 melanoma, with BT-549 breast, in the experiment with NCI-H522 lung, in the experiment on DU-145 prostate and in the experiment with HCC-2998 colon was over 100 µM throughout. Moreover, the TGI in the experiment with HCT-116 colon and in the experiment with SK-MEL-5 melanoma was over 100 µM each time.
As to `CCc1nc(N)nc(N)c1-c1ccc(N2CCNCC2)c([N+](=O)[O-])c1`, the TGI was over 66.1 µM in the experiment with LOX IMVI melanoma; 57.7 µM in the experiment on UACC-257 melanoma; over 100 µM in the experiment with BT-549 breast; over 100 µM with NCI-H522 lung; over 100 µM with DU-145 prostate; 58.8 µM in the experiment with HCC-2998 colon. In addition, the results for the TGI with HCT-116 colon and with SK-MEL-5 melanoma were over 100 µM and 28.3 µM, respectively.
In the case of `C=C(CC)C(=O)c1ccc(OCC(=O)O)c(Cl)c1Cl`, the TGI in the experiment on LOX IMVI melanoma is 29.7 µM; in the experiment with UACC-257 melanoma it was 55.4 µM; in the experiment on BT-549 breast, 17.2 µM; with NCI-H522 lung it was 29.6 µM; with DU-145 prostate it was over 73.2 µM; in the experiment with HCC-2998 colon it was 35.4 µM. The TGI was over 55.1 µM in the experiment with HCT-116 colon and over 55.7 µM in the experiment on SK-MEL-5 melanoma.
In the case of `Cc1c(Br)c(Br)c2c3c1nc(N1CCNCC1)n3CCC2`, the GI50 in the experiment on LOX IMVI melanoma was 1.49 µM; with UACC-257 melanoma, 2.13 µM; in the experiment on BT-549 breast it was 5.36 µM; in the experiment with NCI-H522 lung, 1.49 µM; in the experiment with DU-145 prostate, 1.67 µM; in the experiment on HCC-2998 colon, 1.81 µM. Also, the GI50 in the experiment with HCT-116 colon was 1.73 µM; in the experiment with SK-MEL-5 melanoma, 1.89 µM. Moreover, the TGI in the experiment on LOX IMVI melanoma stood at 2.94 µM; in the experiment on UACC-257 melanoma, 4.2 µM; in the experiment with BT-549 breast, 20.2 µM; with NCI-H522 lung, 3.14 µM; in the experiment with DU-145 prostate, 3.05 µM; in the experiment with HCC-2998 colon it was 3.51 µM. The values for the TGI in the experiment with HCT-116 colon and in the experiment with SK-MEL-5 melanoma were 3.19 µM and 3.42 µM, respectively.
Consider `CCOC(=O)C(Cc1ccccc1)n1c(O)c(/C=N/c2ncc(Cc3ccc(Cl)cc3Cl)s2)sc1=S` (stereo unspecified), for which the GI50 in the experiment with LOX IMVI melanoma is 3.44 µM; with UACC-257 melanoma, 2.72 µM; with BT-549 breast, 2.37 µM; in the experiment on NCI-H522 lung it was 1.31 µM; with DU-145 prostate, 3.9 µM; with HCC-2998 colon, 2.54 µM. The figures for the GI50 with HCT-116 colon and in the experiment on SK-MEL-5 melanoma were 2.03 µM and 1.52 µM, respectively. In addition, the TGI in the experiment with LOX IMVI melanoma is 16.5 µM; in the experiment on UACC-257 melanoma it was 8.57 µM; with BT-549 breast it was 8.23 µM; in the experiment with NCI-H522 lung, 5.7 µM; with DU-145 prostate, over 100 µM; with HCC-2998 colon it was 42.3 µM. For the same compound, the TGI with HCT-116 colon was determined as 11.5 µM; in the experiment with SK-MEL-5 melanoma, 4.13 µM.
For the compound `Cc1cc2c(C(C)C)c(O)c(O)c(/C=N/O)c2c(O)c1-c1c(C)cc2c(C(C)C)c(O)c(O)c(/C=N/O)c2c1O`, the GI50 is 1.53 µM with LOX IMVI melanoma; 2.97 µM in the experiment with UACC-257 melanoma; 2.42 µM with BT-549 breast; 1.74 µM with NCI-H522 lung; 2.77 µM in the experiment on DU-145 prostate; 2.29 µM in the experiment with HCC-2998 colon. Also, the GI50 is 2.41 µM in the experiment on HCT-116 colon and 1.43 µM in the experiment on SK-MEL-5 melanoma. In addition, the TGI with LOX IMVI melanoma came to 3.47 µM; in the experiment on UACC-257 melanoma, 8.76 µM; in the experiment on BT-549 breast it was 13.8 µM; with NCI-H522 lung, 5.47 µM; with DU-145 prostate, 13.7 µM; in the experiment with HCC-2998 colon it was 6.88 µM. Besides, the TGI was 12 µM in the experiment with HCT-116 colon and 3.82 µM in the experiment on SK-MEL-5 melanoma.
With `C/C=C(/C)C(=O)OC1C=C(CO)C(=O)C(OC(=O)C2(C)OC2C)C1C(C)C` (stereo unspecified), the GI50 was 1.71 µM in the experiment on LOX IMVI melanoma; 1.37 µM in the experiment on UACC-257 melanoma; 2.02 µM in the experiment on BT-549 breast; 1.07 µM in the experiment with NCI-H522 lung; 1.52 µM with DU-145 prostate; 1.74 µM in the experiment on HCC-2998 colon. Moreover, the results for the GI50 in the experiment on HCT-116 colon and with SK-MEL-5 melanoma were 1.13 µM and 1.56 µM, respectively. The TGI was 3.3 µM with LOX IMVI melanoma; 2.75 µM with UACC-257 melanoma; 4.35 µM in the experiment on BT-549 breast; 2.54 µM in the experiment with NCI-H522 lung; 2.88 µM in the experiment with DU-145 prostate; 3.22 µM in the experiment on HCC-2998 colon. Also, the TGI in the experiment on HCT-116 colon worked out at 2.48 µM; in the experiment on SK-MEL-5 melanoma, 3.04 µM.
